Data published in ChEMBL document CHEMBL1275564, “Minimal pharmacokinetic interaction between the human immunodeficiency virus nonnucleoside reverse transcriptase inhibitor etravirine and the integrase inhibitor raltegravir in healthy subjects” (Antimicrob Agents Chemother, 2008).

How the values were obtained:
Assay type in all cases: ADME, organism-based
[1] = Trough drug concentration at 12 hrs in healthy human plasma at 200 mg, po twice a day for 8 days by reverse-phase HPLC-MS method; conditions: read-out: Cmin
[2] = Trough drug concentration at 12 hrs in healthy human plasma at 200 mg, po twice a day for 4 days coadministered with 400 mg of raltegravir, po twice a day for 4 days by reverse-phase HPLC-MS method; conditions: read-out: Cmin
[3] = tested on: Homo sapiens; assay: AUC (0 to 12 hrs) in healthy human plasma at 200 mg, po twice a day for 8 days by reverse-phase HPLC-MS method; set-up: time < 12 hr, dose 200 mg, route oral; conditions: in vivo
[4] = tested on: Homo sapiens; assay: AUC (0 to 12 hrs) in healthy human plasma at 200 mg, po twice a day for 4 days coadministered with 400 mg of raltegravir, po twice a day for 4 days by reverse-phase HPLC-MS method; set-up: time < 12 hr, dose 200 mg, route oral; conditions: in vivo
[5] = Cmax in healthy human plasma at 200 mg, po twice a day for 8 days by reverse-phase HPLC-MS method; set-up: dose 200 mg, route oral
[6] = Cmax in healthy human plasma at 200 mg, po twice a day for 4 days coadministered with 400 mg of raltegravir, po twice a day for 4 days by reverse-phase HPLC-MS method; set-up: dose 200 mg, route oral
[7] = Tmax in healthy human plasma at 200 mg, po twice a day for 8 days by reverse-phase HPLC-MS method
[8] = Tmax in healthy human plasma at 200 mg, po twice a day for 4 days coadministered with 400 mg of raltegravir, po twice a day for 4 days by reverse-phase HPLC-MS method
[9] = Trough drug concentration at 12 hrs in healthy human plasma at 400 mg, po twice a day for 4 days by reverse-phase HPLC-MS method; conditions: read-out: Cmin
[10] = Trough drug concentration at 12 hrs in healthy human plasma at 400 mg, po twice a day for 4 days coadministered with 200mg of etravirine twice a day for 4 days by reverse-phase HPLC-MS method; conditions: read-out: Cmin
[11] = AUC (0 to 12 hrs) in healthy human plasma at 400 mg, po twice a day for 4 days by reverse-phase HPLC-MS method; set-up: dose 400 mg, time < 12 hr, route oral
[12] = AUC (0 to 12 hrs) in healthy human plasma at 400 mg, po twice a day for 4 days coadministered with 200mg of etravirine twice a day for 4 days by reverse-phase HPLC-MS method; set-up: time < 12 hr, dose 400 mg, route oral
[13] = Cmax in healthy human plasma at 400 mg, po twice a day for 4 days by reverse-phase HPLC-MS method; set-up: dose 400 mg, route oral
[14] = Cmax in healthy human plasma at 400 mg, po twice a day for 4 days coadministered with 200mg of etravirine twice a day for 4 days by reverse-phase HPLC-MS method; set-up: dose 400 mg, route oral
[15] = Tmax in healthy human plasma at 400 mg, po twice a day for 4 days by reverse-phase HPLC-MS method
[16] = Tmax in healthy human plasma at 400 mg, po twice a day for 4 days coadministered with 200mg of etravirine twice a day for 4 days by reverse-phase HPLC-MS method

SMILES	concentration at 12 h [1] [ng/mL]	concentration at 12 h [2] [ng/mL]	AUC [3] [ng·h/mL]	AUC [4] [ng·h/mL]	Cmax [5] [ng/mL]	Cmax [6] [ng/mL]	Tmax [7] [h]	Tmax [8] [h]	concentration at 12 h [9] [nM]	concentration at 12 h [10] [nM]	AUC at 12 h [11] [µM·h]	AUC at 12 h [12] [µM·h]	Cmax [13] [nM]	Cmax [14] [nM]	Tmax [15] [h]	Tmax [16] [h]
Cc1cc(C#N)cc(C)c1Oc1nc(Nc2ccc(C#N)cc2)nc(N)c1Br [ETRAVIRINE]	373	439	6220	6810	734	766	4	4								
Cc1nnc(C(=O)NC(C)(C)c2nc(C(=O)NCc3ccc(F)cc3)c(O)c(=O)n2C)o1 [RALTEGRAVIR]									216	142	7.01	6.28	1740	1540	1.5	3
